Data from patent US20110039693A1, “Pyrimidylmethyl Sulfonamide Compounds” (BASF SE, priority 2008, published 2011).
Where two headings read alike, the source gives them in different places.

What was measured:
[1] = test system: Pyrenophora teres; experiment: Synergistic mixture microtiter test: Pyrenophora teres; assay type: cell-based; details: single compound
[2] = test system: Puccinia recondita; experiment: Synergistic mixture glasshouse trial: preventative control of brown rust caused by Puccinia recondita; assay type: in vivo; details: single compound, wheat, untreated control 80% diseased leaf area
Protocol: The spray solutions were prepared in several steps: The stock solution were prepared: a mixture of acetone and/or dimethylsulfoxide and the wetting agent/emulsifier Wettol, which is based on ethoxylated alkylphenoles, in a relation (volume) solvent-emulsifier of 99 to 1 was added to 25 mg of the compound to give a total of 10 ml. Water was then added to total volume of 100 ml. This stock solution was diluted with the described solvent-emulsifier-water mixture to the given concentration.
The first two developed leaves of pot-grown wheat seedling were sprayed to run-off with an aqueous suspension, containing the concentration of active ingredient or their mixture as described below. The next day the plants were inoculated with spores of Puccinia recondita. To ensure the success the artificial inoculation, the plants were transferred to a humid chamber without light and a relative humidity of 95 to 99% and 20 to 22° C. for 24 h. Then the trial plants were cultivated for 6 days in a greenhouse chamber at 22-26° C. and a relative humidity between 65 and 70%. The extent of fungal attack on the leaves was visually assessed as % diseased leaf area.
The percentages diseased leaf area were converted into efficacies. An efficacy of 0 means that the infection level of the treated plants corresponds to that of the untreated control plants; an efficacy of 100 means that the treated plants were not infected.
The expected efficacies of active compound mixtures were determined using Colby's formula as described earlier herein.

[3] = test system: Septoria tritici; experiment: Synergistic mixture microtiter test: leaf blotch on wheat caused by Septoria tritici; assay type: cell-based; details: single compound
[4] = test system: Alternaria solani; experiment: Synergistic mixture microtiter test: Alternaria solani; assay type: cell-based; details: single compound
[5] = test system: Phytophthora infestans; assay type: cell-based; details: single compound

SMILES | Observed efficacy (%) ([1]; 0.25 ppm) | Observed efficacy (%) ([2]; 16 ppm) | Observed efficacy (%) ([3]; 4 ppm) | Observed efficacy (%) ([4]; 0.25 ppm) | also measured
Fc1ccc([C@]2(Cn3cncn3)O[C@H]2c2ccccc2Cl)cc1 (racemic) [Epoxiconazole, epoxiconazole, reference compound] | 8% |  |  |  | Observed efficacy (%) ([2]; 0.25 ppm): 0%
O=C(Nc1ccccc1-c1ccc(Cl)cc1)c1cccnc1Cl [Boscalid, boscalid, reference compound] | 63% | 0% | 75% |  | Observed efficacy (%) ([1]; 0.016 ppm): 0%; Observed efficacy (%) ([2]; 4 ppm): 0%
CSc1nccc(CNS(=O)(=O)c2ccc(Oc3ncc(C(F)(F)F)cc3Cl)cc2)n1 [Example I-5] | 0% |  | 22% | 2% | Observed efficacy (%) ([1]; 4 ppm): 21%
COc1nccc(CNS(=O)(=O)c2ccc(Oc3ncc(C(F)(F)F)cc3Cl)c(C)c2)n1 [Example I-17, 4-(3-chloro-5-trifluoromethyl-pyridin-2-yloxy)-N-(2-methoxy-pyrimidin-4-ylmethyl)-3-methyl-benzenesulfonamide] |  |  |  |  | melting point: 138 °C
COc1nccc(CNS(=O)(=O)c2ccc(Oc3ccc(C(F)(F)F)cn3)cc2C)n1 [Example I-22] |  |  |  | 3% | Observed efficacy (%) ([1]; 0.016 ppm): 1%
O=S(=O)(NCc1ccnc(C2CC2)n1)c1ccc(Oc2ncccc2C(F)(F)F)cc1 [Example I-27] |  | 27% | 27% | 3% | Observed efficacy (%) ([4]; 4 ppm): 0%; Observed efficacy (%) ([1]; 4 ppm): 26%
CCOc1nccc(CNS(=O)(=O)c2ccc(Oc3ncccc3C(F)(F)F)cc2)n1 [Example I-52] |  | 29% | 29% | 0% | Observed efficacy (%) ([4]; 4 ppm): 0%; Observed efficacy (%) ([5]; 16 ppm): 53%
CSc1ncc(F)c(CNS(=O)(=O)c2ccc(Oc3ccc(C(F)(F)F)cn3)cc2)n1 [Example I-72] |  | 0% | 14% | 3% | Observed efficacy (%) ([1]; 4 ppm): 14%; Observed efficacy (%) ([2]; 4 ppm): 0%
COc1cc(CNS(=O)(=O)c2ccc(Oc3ccc(C(F)(F)F)cn3)cc2)nc(OC)n1 [Example I-88] | 16% |  |  | 4% | 
COc1cc(CNS(=O)(=O)c2ccc(Oc3ncc(C(F)(F)F)cc3Cl)cc2)nc(OC)n1 [Example I-118] |  |  | 25% | 1% | 
COc1nccc(CNS(=O)(=O)c2ccc(OCc3cncc(C(F)(F)F)c3)cc2)n1 [Example I-125] |  |  | 23% | 4% | Observed efficacy (%) ([2]; 4 ppm): 13%
COC(=O)N(OC)c1ccccc1COc1ccn(-c2ccc(Cl)cc2)n1 [Pyraclostrobin, pyraclostrobin, reference compound] |  |  |  |  | Observed efficacy (%) ([4]; 0.063 ppm): 48%; Observed efficacy (%) ([1]; 0.004 ppm): 0%; Observed efficacy (%) ([2]; 0.25 ppm): 0%; Observed efficacy (%) ([3]; 0.063 ppm): 74%; Observed efficacy (%) ([5]; 0.25 ppm): 38%
